For 21 compounds, EC50 results are on record in patent US11230526B1, “Cylcoalkenyl derivatives useful as agonists of the GPR120 and/or GPR40 receptors” (Janssen Pharmaceutica NV, priority 2018, dated 2022).

Structures are written as SMILES.

What all share (format): cell-based
One test deals with T1, Human GPR120 short form (Homo sapiens, UniProt Q5NUL3).
T1 construct: expressed in transfected cells
T1 sequence (Q5NUL3 1-361): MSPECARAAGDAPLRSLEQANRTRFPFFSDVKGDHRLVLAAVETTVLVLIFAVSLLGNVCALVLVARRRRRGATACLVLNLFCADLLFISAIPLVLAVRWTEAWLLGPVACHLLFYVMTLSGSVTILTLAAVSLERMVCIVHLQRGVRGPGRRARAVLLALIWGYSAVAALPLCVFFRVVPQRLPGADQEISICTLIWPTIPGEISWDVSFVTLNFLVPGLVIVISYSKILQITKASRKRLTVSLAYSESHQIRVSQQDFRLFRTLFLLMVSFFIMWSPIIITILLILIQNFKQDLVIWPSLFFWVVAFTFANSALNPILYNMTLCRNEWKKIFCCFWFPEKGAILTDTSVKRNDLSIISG
Put plainly: Human GPR120 calcium flux assay, Procedure Calcium B (4200 cells/well). Summed up:
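HEK293 cells stably expressing human GPR120 (NM_001195755.1), 4200 cells/well, starved 1 h and loaded with Fluo-4 NW plus probenecid. Ligand-evoked calcium flux read on FLIPR for 300 s after a 10 s baseline. RFU = Fmax−Fmin; EC50 from four-parameter concentration-response fit.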

Test [1] addresses T2, long form of human GPR120 (Homo sapiens, UniProt Q5NUL3).
T2 construct: host or cells: PathHunter CHO-K1 GPR120 β-Arrestin Cell Line
Put plainly: Human GPR120 DiscoveRx PathHunter Beta-Arrestin assay, Procedure β-arrestin A. An excerpt:
Human GPR120 DiscoveRx PathHunter® Beta-Arrestin Assay Assay Principle:
The binding of an agonist (medium/long chain fatty acids or small molecule agonists) to the G-protein-coupled receptor GPR120 activates phospholipase C, leading to release of intracellular Ca^+2 through the generation of inositol 1,4,5-trisphosphate (InsP3 or IP3). GPR120 activation can also trigger intracellular signaling via recruitment of Beta-Arrestin. In the present method, agonist-induced activation of the human GPR120 receptor is monitored through the use of PathHunter® CHO-K1 GPR120 Beta-Arrestin Cell Line engineered by DiscoveRx, as detailed below. The cell lines are designed to co-express both the ProLink/Enzyme Donor (PK)-tagged GPCR and the Enzyme […] (EA)-tagged Beta-Arrestin fusion proteins. Upon GPR120 receptor stimulation/activation, the EA-tagged Beta-Arrestin portion is translocated to the tagged receptor, where the two enzyme fragments are brought within close proximity. Under these conditions, these fragments can interact and form an active Beta-gal enzyme complex through Enzyme Fragment Complementation (EFC). This active Beta-gal complex can enzymatically hydrolyse the substrate to produce a detectable light signal; therefore, activation as a function of agonist concentration can be expressed as an EC50 value to determine relative compound activities. This in vitro assay therefore serves to assess compound agonist activity of the GPR120.
In Procedure β-arrestin A, the cell used were PathHunter® CHO-K1 GPR120 β-Arrestin Cell Line, expressing the long form of human GPR120 (Genbank accession number NM_181745), with 3000 cells per well.
The selected CHO-K1 GPR120 β-Arrestin cells were cultured in Ham's F12 media supplemented with 10% fetal bovine serum (FBS), 1% Glutamine, 1×p/s, 800 μg/mL G418 and 300 μg/mL Hygromycin B (for selection). Cell stocks were maintained and grown in a sub-confluent state using standard cell culture procedures. The day before the experiment, the cells were harvested with non-enzymatic cell dissociation buffer and re-suspended in complete growth media at the desired concentration. A Corning 384-plate was then seeded with the proper number of cells in a volume of 25 μL, per well. The seeded plates were incubated overnight at 37° C.
On the day of the experiment, the Assay Buffer containing (a) HBSS with Ca^++ and Mg^++, (b) 20 mM HEPES, and (c) 0.1% BSA stabilizer (pH 7.4) was prepared. The growth medium was gently removed from the cell plates and 20 μL of Assay Buffer added to each well. The plate was then incubated at 37° C. for 60 min. Test compounds were serially diluted in Assay Buffer to desired concentrations (more particularly to one or more of the following μM concentrations: 25, 12.5, 6.25, 3.12, 1.56, 0.78, 0.39, 0.19, 0.10, 0.05, 0.02, 0.01). Five μL of compound dilution was then added to each well and the plate incubated at 37° C. for 90 min. The detection reagents were prepared according to the manufacture's instruction. Twelve μL of the detection reagents were added to each well and the plate incubated at room temperature for 60 min.
The plates were read on an EnVision instrument, using Protocol name: Luminescence, Plate type: 384 Costar, Measurement height: 3 mm, Measurement time: 1 s, Aperture: 384 Plate aperture. The % Activity relative to the positive control was calculated using the following equation:
The % Activity values were plotted versus the concentration of test compound and fitted to a sigmoidal dose-response curve with a Hill slope=1 (fixed value) using nonlinear regression with GraphPad Prism 5.0 to calculate the EC50 values. The Fitting Equation was: Y=Bottom+(Top-Bottom)/(1+10^((Log EC50−X)*HillSlope)), where X is the log of the concentration and Y is the response.

In the next test the target is T3, human GPR40 (Homo sapiens, UniProt O14842).
T3 construct: expressed in transfected cells
T3 sequence (O14842 whole entry): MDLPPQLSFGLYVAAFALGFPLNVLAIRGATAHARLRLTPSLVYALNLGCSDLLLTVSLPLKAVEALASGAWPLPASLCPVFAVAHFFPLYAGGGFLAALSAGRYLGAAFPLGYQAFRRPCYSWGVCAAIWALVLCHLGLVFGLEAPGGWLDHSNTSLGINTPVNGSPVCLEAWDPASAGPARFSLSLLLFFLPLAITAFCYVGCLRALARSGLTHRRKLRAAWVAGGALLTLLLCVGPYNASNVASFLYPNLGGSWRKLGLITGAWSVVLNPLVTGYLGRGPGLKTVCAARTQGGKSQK
Nature of the test: GPR40 calcium flux assay, human GPR40. The conditions noted are these: HEK293 cells stably expressing GPR40; table does not say human or rat. The essentials: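 Cells preincubated 1 h at 37° C. in HBSS, 20 mM HEPES, 0.1% BSA, then Fluo 8 calcium dye 30 min at 37° C. and 15 min at room temperature.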

T2 sequence (Q5NUL3 1-377 isoform Q5NUL3-1): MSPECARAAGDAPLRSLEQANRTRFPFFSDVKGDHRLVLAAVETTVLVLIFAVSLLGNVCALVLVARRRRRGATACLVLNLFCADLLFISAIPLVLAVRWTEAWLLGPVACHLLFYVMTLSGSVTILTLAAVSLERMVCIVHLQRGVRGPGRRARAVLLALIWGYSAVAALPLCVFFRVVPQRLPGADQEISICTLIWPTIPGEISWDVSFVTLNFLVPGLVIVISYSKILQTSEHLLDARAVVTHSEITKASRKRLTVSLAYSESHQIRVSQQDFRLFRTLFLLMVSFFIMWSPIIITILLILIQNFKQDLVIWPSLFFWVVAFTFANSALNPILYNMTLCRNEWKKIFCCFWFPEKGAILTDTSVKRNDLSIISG
T2 sequence (P32121 whole entry partner): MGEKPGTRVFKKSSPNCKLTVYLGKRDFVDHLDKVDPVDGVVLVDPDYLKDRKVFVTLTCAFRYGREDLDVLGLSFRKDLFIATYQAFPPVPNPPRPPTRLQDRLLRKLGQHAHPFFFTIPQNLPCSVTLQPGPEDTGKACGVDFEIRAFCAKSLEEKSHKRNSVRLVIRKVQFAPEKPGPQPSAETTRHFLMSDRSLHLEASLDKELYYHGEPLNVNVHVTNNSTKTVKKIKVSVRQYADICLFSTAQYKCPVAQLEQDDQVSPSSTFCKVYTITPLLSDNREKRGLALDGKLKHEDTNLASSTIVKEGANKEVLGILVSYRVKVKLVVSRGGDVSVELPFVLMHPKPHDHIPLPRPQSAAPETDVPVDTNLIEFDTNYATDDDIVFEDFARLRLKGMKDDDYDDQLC

As to `Cc1ccc(C2=C(COc3ccc(CCC(=O)O)cc3Br)CCC2)cc1` [Compound 169, 3-[3-bromo-4-[[2-(p-tolyl)cyclopenten-1-yl]methoxy]phenyl]Propanoic Acid], the EC50 – broadly, the concentration giving half of the maximal effect – at Human GPR120 short form was 49 nM; in test [1], 35 nM.
For `COC1CC(COc2ccc(CCC(=O)O)c(C)c2C)=C(c2ccc(Cl)cc2)C1` (stereo not drawn) [Compound 189, 3-[4-[[2-(4-chlorophenyl)-4-methoxy-cyclopenten-1-yl]methoxy]-2,3-dimethyl-phenyl]Propanoic Acid] the same measures were 63 nM and 245 nM.
As for `Cc1c(CCC(=O)O)ccc(OCC2=C(c3cccs3)CC(F)(F)C2)c1C` [Compound 200, 3-[4-[[4,4-difluoro-2-(2-thienyl)cyclopenten-1-yl]methoxy]-2,3-dimethyl-phenyl]Propanoic Acid], the EC50 on Human GPR120 short form was found to be 184 nM; in test [1] it was 435 nM.
As for `Cc1ccc(C2=C(COc3ccc(CCC(=O)O)c(C)c3C)CC(F)(F)CC2)s1` [Compound 564, 3-[4-[[5,5-difluoro-2-(5-methyl-2-thienyl)cyclohexen-1-yl]methoxy]-2,3-dimethyl-phenyl]Propanoic Acid], the EC50 on Human GPR120 short form was determined as 90 nM; in test [1] it was 176 nM.
For `Cc1cc(CCC(=O)O)ccc1OCC1=C(c2cccs2)CC(F)(F)C1` [Compound 202, 3-[4-[[4,4-difluoro-2-(2-thienyl)cyclopenten-1-yl]methoxy]-3-methyl-phenyl]Propanoic Acid] the same measures were 114 nM and 303 nM.
For `Cc1c(CCC(=O)O)ccc(OCC2=C(c3ccc(Cl)c(F)c3)CC(F)(F)C2)c1C` [Compound 171, 3-[4-[[2-(4-chloro-3-fluoro-phenyl)-4,4-difluoro-cyclopenten-1-yl]methoxy]-2,3-dimethyl-phenyl]Propanoic Acid] the same measures were 106 nM and 211 nM.
Take `Cc1cc(CCC(=O)O)ccc1OCC1=C(c2ccco2)CCC(F)(F)C1` [Compound 555, 3-[4-[[5,5-difluoro-2-(2-furyl)cyclohexen-1-yl]methoxy]-3-methyl-phenyl]Propanoic Acid]: the concentration for a half-maximal effect (EC50) stood at 164 nM at Human GPR120 short form and 358 nM in test [1].
As for `COC1CCC(c2ccc(Cl)cc2)=C(COc2ccc(CCC(=O)O)c(C)c2C)C1` (stereo not drawn) [Compound 540, 3-[4-[[2-(4-chlorophenyl)-5-methoxy-cyclohexen-1-yl]methoxy]-2,3-dimethyl-phenyl]Propanoic Acid], the EC50 amounted to 151 nM on Human GPR120 short form and 222 nM in test [1].
Turning to `Cc1c(CCC(=O)O)ccc(OCC2=C(c3ccc(Cl)cc3)CC(Cl)C2)c1C` (stereo not drawn) [Compound 195, 3-[4-[[4-chloro-2-(4-chlorophenyl)cyclopenten-1-yl]methoxy]-2,3-dimethyl-phenyl]Propanoic Acid], the EC50 was determined as 228 nM at Human GPR120 short form and 466 nM in test [1].
For `O=C(O)CCc1cc(F)c(OCC2=C(c3cccs3)CC(F)(F)C2)c(F)c1` [Compound 201, 3-[4-[[4,4-difluoro-2-(2-thienyl)cyclopenten-1-yl]methoxy]-3,5-difluoro-phenyl]Propanoic Acid], in that order: 792 nM and 408 nM.
`Cc1c(CCC(=O)O)ccc(OCC2=C(c3ccccc3)CC(F)(F)C2)c1C` [Compound 194, 3-[4-[(4,4-difluoro-2-phenyl-cyclopenten-1-yl)methoxy]-2,3-dimethyl-phenyl]Propanoic Acid]: the EC50 at Human GPR120 short form turned out to be 36 nM; in test [1], 161 nM.
Take `O=C(O)CCc1ccc(OCC2=C(Cc3ccccc3F)CCC2)cc1Cl` [Compound 438, 3-[2-chloro-4-[[2-[(2-fluorophenyl)methyl]cyclopenten-1-yl]methoxy]phenyl]Propanoic Acid]: the EC50 turned out to be 138 nM at human GPR40 and 3340 nM on Human GPR120 short form.
For `O=C(O)CCc1ccc(OCC2=C(CC3CCCCC3)CCC2)cc1C(F)(F)F` [Compound 369, 3-[4-[[2-(cyclohexylmethyl)cyclopenten-1-yl]methoxy]-2-(trifluoromethyl)phenyl]Propanoic Acid], in that order: 125 nM and greater than 5000 nM.
For `CC(C)CC1=C(COc2ccc(CCC(=O)O)c(C(F)(F)F)c2)CCC1` [Compound 385, 3-(4-((2-isobutylcyclopent-1-en-1-yl)methoxy)-2-(trifluoromethyl)phenyl)Propanoic Acid] the same measures were 12 nM and 708 nM.
For `O=C(O)CCc1ccc(OCC2=C(C3CCC(F)(F)CC3)CCC2)cc1` [Compound 412, 3-[4-[[2-(4,4-difluorocyclohexyl)cyclopenten-1-yl]methoxy]phenyl]Propanoic Acid] the same measures were 513 nM and 4650 nM.
On to `COc1ccc(C2=C(COc3cc(C)c(CCC(=O)O)cc3F)CCC2)cc1` [Compound 279, 3-[5-fluoro-4-[[2-(4-methoxyphenyl)cyclopenten-1-yl]methoxy]-2-methyl-phenyl]Propanoic Acid], for which the EC50 at human GPR40 stood at 3520 nM; on Human GPR120 short form it was 495 nM.
For `COc1ccc(C2=C(COc3c(F)cc(CCC(=O)O)cc3F)CCC2)cn1` [Compound 221, 3-[3,5-difluoro-4-[[2-(6-methoxy-3-pyridyl)cyclopenten-1-yl]methoxy]phenyl]Propanoic Acid], the EC50 at human GPR40 is greater than 5000 nM; at Human GPR120 short form, 160 nM.
For `N#Cc1cc(OCC2=C(c3ccc(F)cc3)CCC2)ccc1CCC(=O)O` [Compound 237, 3-[2-cyano-4-[[2-(4-fluorophenyl)cyclopenten-1-yl]methoxy]phenyl]Propanoic Acid], in that order: 923 nM and greater than 5000 nM.
Consider `Cc1cc(CCC(=O)O)ccc1OCC1=C(Cc2ccccc2)CCC1` [Compound 315, 3-[4-[(2-benzylcyclopenten-1-yl)methoxy]-3-methyl-phenyl]Propanoic Acid], for which the EC50 on human GPR40 is greater than 5000 nM; on Human GPR120 short form it was 185 nM.
Regarding `O=C(O)CCc1ccc(OCC2=C(C3CCC4CC43)CCC2)cc1C(F)(F)F` (stereo not drawn) [Compound 456, 3-[4-[[2-(4-bicyclo[3.1.0]hexanyl)cyclopenten-1-yl]methoxy]-2-(trifluoromethyl)phenyl]Propanoic Acid], the values for the EC50 at human GPR40 and on Human GPR120 short form were 42 nM and 924 nM, respectively.
Take `O=C(O)CCc1ccc(OCC2=C(C3CCOCC3)CCC2)cc1Cl` [Compound 418, 3-[2-chloro-4-[(2-tetrahydropyran-4-ylcyclopenten-1-yl)methoxy]phenyl]Propanoic Acid]: the EC50 at human GPR40 was 171 nM; on Human GPR120 short form, greater than 5000 nM.
